The text below walks through data of patent US10322133B2, “Synthetic lethal drug combination for treating renal cell carcinoma” (Commissariat a l'Energie Atomique et aux Energies …, priority 2015, dated 2019).

The subject of assay [1] is 786-O VHL^− cells. The assay is described as follows: FACS cell cycle analysis (Propidium Iodide). In kind it is cell-based, human. The note with it: hypoxic conditions, 48 h. How it is done:
FIG. 6: A) FACS analysis of 786-O VHL^− cells treated for 48 h with indicated compounds under hypoxic conditions and labeled with Propidium Iodide for cell cycle analysis.

For assay [2], the system named is 786-O VHL^− cells. The assay is described as follows: 3D assay on Multicellular Tumor Spheroids (Propidium Iodide). The assay is classed as cell-based, human. The note with it: 5 μM, 48 h, P≤0.0001 Kruskal-Wallis. How it is done: For 3-D culture (spheroids), the spheroids were prepared in 96-wells U-bottom tissue culture plate with low evaporation Lid (Microtest™, Becton Dickinson Labware, San Jose, Calif.) coated with 20 mg/mL of poly-HEMA per well to allow the formation of spheroids. Renal cancer cells 786-O WT, 786-O pBABE and 786-O VHL (taken from exponentially growing cultures) were seeded at a density of […] in RPMI supplemented with 10% FCS. 90 μL (9×10^2 cells) of these cell suspensions were deposed in each well then tissue culture plates were incubated at 37° C. and 5% CO2 for 3 days before drug treatment for further 48 h.
Three days pre-formed spheroids were treated with the different drugs at indicated concentrations during 48 H. After that, Hoechst (200 ng/mL) and Propidium Iodide (1 μg/mL) were added as markers of cell nuclei and cell death respectively. Images of IP and Hoechst fluorescence were acquired at the CMBA platform using the automated microscope ArrayScanVTI (ThermoScientific). ArrayScanVTI is a fluorescent microscope which allows the rapid and fully automated acquisition of images of fixed or live cells in 96-well microplates at different magnifications. Dedicated softwares are used to automatically perform High Content image Analysis like spheroid area measurement, fluorescent intensity measurement of each staining and counting of the number of dead cells.

Assay [3] has as its system 786-O VHL^− cells. Nature of the assay: Viability assay (PrestoBlue) / high-throughput drug-gene screening. The assay is classed as cell-based, human. The note with it: for sensitivity of cells to ATM inhibitor after shRNA-mediated knockdown of CK2α (cell viability): shCK2α vs shCTRL 786-O cells, 48 h. How it is done: Cytotoxicity was measured using PrestoBlue assay (Invitrogen, Carlsbad, Calif.). Cell lines were seeded in a 96-well microtiter plate at a concentration of 5×10^4 cells/mL. Cells were allowed to attach for 24 hrs at 37° C. and 5% CO2. The cells were exposed to the negative control DMSO or positive drug CX-4945 at 20 μM for 48 h or the other molecules at indicated concentrations. […] DMSO was used as a negative control and 20 μM CX-4945 as a positive control. Plates were further cultured for 48 hrs. Cells were labeled with vital Hoechst (33342) together with Prestoblue and the fluorescence reading was made through the Tecan's Infinite M100 reader. See Flow chart in FIG. 1. Raw data were first imported into the database of the home-made analysis software TAMIS, used for analysis. […] Finally, for each compound X/targeted-shRNA Y pair and assay, the activity percentage obtained with the compound X/Ctrl-shRNA was taken from the compound X/targeted-shRNA Y activity percentage in order to identify compound X/targeted-shRNA Y pair showing additive, or even synergistic, effect compared to compound X/Ctrl-shRNA pair.

In assay [4] the target is T1, ATM (Homo sapiens, UniProt Q13315).
T1 construct: endogenous in cells; host or cells: 786-O cells (VHL- and VHL+), cultured under 1.5% O2
The assay is described as follows: Western blot of ATM phosphorylation in 786-O cells. The assay is classed as cell-based. The note with it: 786-O VHL^+/−, 1.5% O2, 5 μM, 48 h. How it is done: Blotted membranes were blocked during 1 h at room temperature with saturation buffer (1% BSA in TBST), and then incubated with primary antibody diluted in saturation buffer, during 1 h 30. Secondary antibodies were added for 1 hour.
For orientation: Immunoblotting shows a protein as a band on a membrane.

T1 sequence (Q13315 whole entry): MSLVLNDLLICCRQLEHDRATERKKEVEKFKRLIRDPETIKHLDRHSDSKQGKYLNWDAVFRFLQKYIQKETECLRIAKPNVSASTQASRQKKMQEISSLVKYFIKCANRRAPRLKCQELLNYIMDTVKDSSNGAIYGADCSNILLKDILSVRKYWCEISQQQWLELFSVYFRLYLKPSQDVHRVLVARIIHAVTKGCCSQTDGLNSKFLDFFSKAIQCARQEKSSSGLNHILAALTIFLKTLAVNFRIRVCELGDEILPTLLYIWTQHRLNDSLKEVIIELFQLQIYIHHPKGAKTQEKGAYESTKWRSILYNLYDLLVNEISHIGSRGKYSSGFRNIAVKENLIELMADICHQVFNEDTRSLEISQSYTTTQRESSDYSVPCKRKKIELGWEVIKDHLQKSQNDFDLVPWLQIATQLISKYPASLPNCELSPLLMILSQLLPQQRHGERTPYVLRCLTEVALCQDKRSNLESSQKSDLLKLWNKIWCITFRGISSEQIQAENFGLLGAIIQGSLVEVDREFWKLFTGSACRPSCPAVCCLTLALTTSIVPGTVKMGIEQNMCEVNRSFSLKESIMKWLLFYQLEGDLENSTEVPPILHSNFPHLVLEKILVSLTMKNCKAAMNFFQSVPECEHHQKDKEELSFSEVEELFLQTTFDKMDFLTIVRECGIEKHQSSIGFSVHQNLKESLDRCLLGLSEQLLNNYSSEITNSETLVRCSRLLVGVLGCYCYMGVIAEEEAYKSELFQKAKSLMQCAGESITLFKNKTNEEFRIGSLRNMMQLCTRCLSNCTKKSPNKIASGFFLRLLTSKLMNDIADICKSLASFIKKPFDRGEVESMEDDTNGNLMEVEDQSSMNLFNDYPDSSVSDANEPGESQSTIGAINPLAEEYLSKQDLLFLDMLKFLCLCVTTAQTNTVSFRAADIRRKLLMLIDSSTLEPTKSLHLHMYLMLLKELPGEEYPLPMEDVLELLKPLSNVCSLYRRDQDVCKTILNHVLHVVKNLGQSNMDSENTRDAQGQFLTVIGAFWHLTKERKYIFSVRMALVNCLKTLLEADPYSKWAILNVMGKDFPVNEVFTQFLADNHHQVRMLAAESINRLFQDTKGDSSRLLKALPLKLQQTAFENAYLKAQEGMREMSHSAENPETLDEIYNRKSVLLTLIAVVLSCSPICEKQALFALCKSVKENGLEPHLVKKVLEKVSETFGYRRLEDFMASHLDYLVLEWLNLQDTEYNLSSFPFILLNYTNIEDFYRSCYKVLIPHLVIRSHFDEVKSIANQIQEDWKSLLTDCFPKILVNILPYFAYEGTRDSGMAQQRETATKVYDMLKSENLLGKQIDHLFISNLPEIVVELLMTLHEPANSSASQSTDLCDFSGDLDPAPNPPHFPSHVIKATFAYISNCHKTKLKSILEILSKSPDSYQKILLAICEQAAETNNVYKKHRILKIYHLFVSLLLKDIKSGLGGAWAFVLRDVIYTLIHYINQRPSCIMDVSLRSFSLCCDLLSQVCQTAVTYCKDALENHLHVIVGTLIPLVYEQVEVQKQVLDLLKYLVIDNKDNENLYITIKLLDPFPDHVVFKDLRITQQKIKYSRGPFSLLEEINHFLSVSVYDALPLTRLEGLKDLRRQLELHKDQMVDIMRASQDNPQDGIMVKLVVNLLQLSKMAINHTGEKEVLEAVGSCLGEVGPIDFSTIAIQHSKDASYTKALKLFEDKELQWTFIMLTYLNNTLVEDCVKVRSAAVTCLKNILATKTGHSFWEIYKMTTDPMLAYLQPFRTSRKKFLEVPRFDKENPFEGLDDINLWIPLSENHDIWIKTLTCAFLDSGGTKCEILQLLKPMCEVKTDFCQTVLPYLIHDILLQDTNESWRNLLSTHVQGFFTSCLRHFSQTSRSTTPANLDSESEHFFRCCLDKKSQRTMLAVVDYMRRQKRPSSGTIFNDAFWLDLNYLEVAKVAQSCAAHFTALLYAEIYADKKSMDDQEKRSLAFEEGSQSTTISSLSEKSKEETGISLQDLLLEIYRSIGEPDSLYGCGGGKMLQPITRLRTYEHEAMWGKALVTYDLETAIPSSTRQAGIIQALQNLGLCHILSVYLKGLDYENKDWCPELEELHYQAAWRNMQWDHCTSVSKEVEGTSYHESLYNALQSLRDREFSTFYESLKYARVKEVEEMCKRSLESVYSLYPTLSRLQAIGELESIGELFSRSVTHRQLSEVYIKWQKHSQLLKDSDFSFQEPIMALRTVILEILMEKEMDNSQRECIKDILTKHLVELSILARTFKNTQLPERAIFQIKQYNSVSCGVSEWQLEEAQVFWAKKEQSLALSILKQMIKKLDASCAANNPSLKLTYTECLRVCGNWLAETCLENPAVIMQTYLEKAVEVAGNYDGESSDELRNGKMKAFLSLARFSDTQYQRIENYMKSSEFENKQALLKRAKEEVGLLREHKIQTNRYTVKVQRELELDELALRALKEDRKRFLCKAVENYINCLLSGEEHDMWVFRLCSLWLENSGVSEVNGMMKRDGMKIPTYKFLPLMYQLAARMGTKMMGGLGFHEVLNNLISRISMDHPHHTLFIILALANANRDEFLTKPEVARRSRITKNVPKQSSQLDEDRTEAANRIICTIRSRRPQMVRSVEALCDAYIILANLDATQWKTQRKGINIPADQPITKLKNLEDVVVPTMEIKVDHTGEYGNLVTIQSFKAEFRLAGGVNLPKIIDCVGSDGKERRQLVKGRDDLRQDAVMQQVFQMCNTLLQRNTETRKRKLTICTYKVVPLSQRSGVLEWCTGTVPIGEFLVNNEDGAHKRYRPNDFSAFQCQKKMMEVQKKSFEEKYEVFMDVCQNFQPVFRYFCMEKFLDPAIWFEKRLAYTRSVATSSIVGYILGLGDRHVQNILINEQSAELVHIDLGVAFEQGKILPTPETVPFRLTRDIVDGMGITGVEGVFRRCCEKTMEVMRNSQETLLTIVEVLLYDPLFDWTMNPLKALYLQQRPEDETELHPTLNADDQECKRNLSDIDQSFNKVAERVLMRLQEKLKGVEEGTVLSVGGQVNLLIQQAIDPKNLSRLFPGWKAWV

For the compound `O=C(O)c1ccc2c(c1)nc(Nc1cccc(Cl)c1)c1ccncc12` [CX-4945, 5-(3-chlorophenylamino)benzo[c][2,6]naphthyridine-8-carboxylic acid], the “effect on G1 phase” value in assay [1] was “without effect”. Further, the “cell death in shATM MTS versus vehicle” value in assay [2] is given as “Significant difference”.

Regarding `O=c1cc(-c2cccc3c2Sc2ccccc2S3)oc(N2CCOCC2)c1` [KU-55933, 2-Morpholin-4-yl-6-thianthren-1-yl-pyran-4-one], in assay [3], the “sensitivity of cells to ATM inhibitor after shRNA-mediated knockdown of CK2α (cell viability)” value was “enhanced the sensitivity”.

As for `C[C@@H]1CN(CC(=O)Nc2ccc3c(c2)Cc2cccc(-c4cc(=O)cc(N5CCOCC5)o4)c2S3)C[C@H](C)O1` [KU-60019, 2-((2S,6R)-2,6-dimethylmorpholino)-N-(5-(6-morpholino-4-oxo-4H-pyran-2-yl)-9H-thioxanthen-2-yl)acetamide], the “inhibition of ATM (phosphorylation of P-ATM Ser1981)” value in assay [4] is listed as “clearly inhibited”. For the same compound, in assay [2], the “cell death in shCK2α MTS versus vehicle (DMSO)” value was “Significant difference”. Further, the “efficiency of ATM inhibitor compared with KU-55933” value in assay [3] (786-O cell viability, with CK2 inhibitors (FIG. 2C)) is given as “significantly more efficient”. Moreover, the “sensitivity of cells to ATM inhibitor after shRNA-mediated knockdown of CK2α (cell viability)” value in assay [3] was “enhanced the sensitivity”.
